Here are results for one compound from patent US8889724B2, “Tetrazole compounds for reducing uric acid” (Wellstat Therapeutics Corporation, priority 2008, dated 2014).

Several values for one entry are separate records, joined by “and”; a condition that tells them apart may be missing. Equal values may be shown once.

A word on the Cmax: it is the maximum level reached in the sampled fluid or tissue. By inhibition is commonly meant how much of the control response was suppressed. By IC50 is commonly meant the point on the concentration scale where inhibition reaches its midpoint.

A short description of data set [1]: Rat pilot single-dose oral pharmacokinetic study with Compound EB. It is filed as in vivo. To be noted: 100 mg/kg single oral gavage; for Compound EB concentration in plasma, individual rats: male Sprague-Dawley rat. The protocol:
Rat Pilot Single-Dose Oral Pharmacokinetic Study with Compound EB
Determination of the plasma profile of Compound EB following single oral gavage administration to male rats.
Test compound was suspended in 1% HPMC using a tissue homogenizer to minimize particles and maximize uniformity of the suspension and stored at 4° C. The formulations was thoroughly mixed just prior to administration. A dose of 100 mg/kg of test compounds or vehicle (1% HPMC) was administered to male Sprague-Dawley rats by single oral gavage. […] The blood samples were centrifuged within 30 minutes of collection under refrigeration (2-8° C.) for 7 minutes at 6000 rpm. Following centrifugation, the plasma were harvested into a single tube for each animal at each time point and immediately frozen at −80° C. until analyzed using LC/MS-MS. Serial plasma concentration time data was subjected to pharmacokinetic analyses using WinNonlin Standard (v2.1, Pharsight Corporation) and Microsoft EXCEL.
1. Rats received single oral gavage of Compound EB, 100 mg/kg, and plasma was collected at certain times.
2. Plasma was stored at −80° C. until the day of analysis.
3. Samples were thawed on 37° C. bath for 5 min and vortexed at top speed for 10 sec.
4. Rat plasma, 0.1 mL was mixed with 0.2 mL Acetonitrile, vortexed 1 min, spun down 14000 rpm, 17000 g, at 4° C., for 25 min.
5. Supernatants were filtered through 0.45 micron, 4 mm, PTFE membrane syringe filter (Phenomenex # AF0-3102-52), and 13 microL were injected and resolved on Luna 3 micron, 100 A pore, C8(2), 150×3 mm, reverse phase column (Phenomenex#00F-4248-YO, SN#259151-7) in 50 min linear gradient from 40% to 69% of (0.1% Formic Acid, 89.9% Acetonitrile, 10% Methanol) at 0.25 mL/min, 100 bar, 37° C. column temperature, method 406975M1, AGILENT sequence 1015-08A, Agilent 1100 LC-MS.
All samples were run in duplicate, 210 nm and 230 nm Absorbances, Negative and Positive ionization spectrograms were recorded.
Step 1. Plasma from “Vehicle” animals (pooled), 0.19 mL, was mixed with 0.01 mL 20× stock of PN2107 in Methanol to make 500 microM, 250 microM, 125 microM, . . . , concentrations of Compound EB in plasma.
For example: 190 microL plasma+10 microL of 10 mM Compound EB in methanol=0.2 mL plasma with 500 microM Compound EB.
Step 2. Samples from step 1 were vortexed for 10 sec at top speed.
Step 3. 0.4 mL of acetonitrile was added to all samples from Step 2, and all vials were vortexed at top speed for 1 min.
Step 4. All samples from step 3 were spun down 14000 rpm, 17000 g, at 4° C., for 25 min.
Step 5. Supernatants were filtered through 0.45 micron, 4 mm, PTFE membrane syringe filter (Phenomenex # AF0-3102-52), 13 microL were injected and resolved on Luna 3 micron, 100 A pore, C8(2), 150×3 mm, reverse phase column (Phenomenex#00F-4248-YO, SN#259151-7) in 50 min linear gradient from 40% to 69% of (0.1% Formic Acid, 89.9% Acetonitrile, 10% Methanol) at 0.25 ml/min, 100 bar, 37° C. column temperature.

The target of data set [2] is human URAT1 (Homo sapiens (Human), UniProt Q96S37). The data set can be described thus: URAT1 inhibition assay: [8-14C] urate uptake in hURAT1-HEK cells. Type of data set: cell-based. The protocol:
URAT1 (Uric Acid Transporter 1) is expressed on the apical membrane in renal tubules. It mediates the re-uptake of uric acid from the urine into the blood.
A suitable assay involves transfection of cells (e g human embryonic kidney cells; “HEK”) with a vector encoding human URAT1, followed by determination of the ability of transfected cells to take up radiolabeled uric acid. The activity of compounds as URAT1 inhibitors is evaluated by their ability to block uric acid uptake by transfected cells.
Test Compounds and Chemicals:
Urate (50-60 mCi/mmol; American Radio Chemicals, Cat. No. ARC0513).
Subcloning of hURAT1 into the Expression Vector:
Plasmid vector pCMV6-XL5 containing hURAT1 cDNA (Cat. No. SC125624) and the expression vector pCMV6-Neo (Cat. No. pCMVNEO) were obtained from OriGene Technologies, Inc. The full-length hURAT1 cDNA was obtained from the vector pCMV6-XL5 and subcloned into the expression vector pCMV6-Neo to create the hURAT1 expression plasmid pCMV6-hURAT1. The sequences were verified by automatic DNA sequencing.
Cell Culture, Transfection of URAT1 Expressing Plasmids and the Establishment of Stably Expressing HEK Cells for hURAT1:
For transfection experiments, cells were plated on 60 mm dishes in 1 ml media per dish. […] Stable transfectants expressing hURAT1 (herein after referred as hURAT1-HEK cells) or cells having only the expression vector pCMV6-Neo (herein after referred as mock-HEK cells) were verified using reverse transcription polymerase chain reaction (RT-PCR) methods.
[8-^14C] Urate Uptake Assay:
Before the uptake assay started, the culture medium was removed and the cells were incubated for 5 min in 0.6 ml of HBSS. After that HBSS was removed, the prepared reaction solutions were added into each well and incubated for 5 min at room temperature. Then the reaction solution was removed, cells were washed twice with 0.6 ml of cold HBSS and lysed with 0.2 ml of 0.1 M NaOH for 20 min. […] Test compounds were dissolved in DMSO and the same concentration of DMSO was added into the wells of mock-HEK cells and the hURAT1-HEK cells that didn't contain test compounds. For each test compound, the uptake assay was performed 2 times and carried out in triplicate. Urate uptake of the cells for each test condition was presented as the average percent inhibition in comparison to the DMSO control. The radioactivity values obtained for the wells that contained DMSO were taken as 100% uptake of the cells. The observed concentration-percent inhibition data were fitted to a sigmoidal concentration-effect model, where: % Inhibition=(100*Conc^Slope)/(IC50^Slope+Conc^Slope)
In this example the compounds were not necessarily tested simultaneously.

Chain of human URAT1 (Q96S37 whole entry): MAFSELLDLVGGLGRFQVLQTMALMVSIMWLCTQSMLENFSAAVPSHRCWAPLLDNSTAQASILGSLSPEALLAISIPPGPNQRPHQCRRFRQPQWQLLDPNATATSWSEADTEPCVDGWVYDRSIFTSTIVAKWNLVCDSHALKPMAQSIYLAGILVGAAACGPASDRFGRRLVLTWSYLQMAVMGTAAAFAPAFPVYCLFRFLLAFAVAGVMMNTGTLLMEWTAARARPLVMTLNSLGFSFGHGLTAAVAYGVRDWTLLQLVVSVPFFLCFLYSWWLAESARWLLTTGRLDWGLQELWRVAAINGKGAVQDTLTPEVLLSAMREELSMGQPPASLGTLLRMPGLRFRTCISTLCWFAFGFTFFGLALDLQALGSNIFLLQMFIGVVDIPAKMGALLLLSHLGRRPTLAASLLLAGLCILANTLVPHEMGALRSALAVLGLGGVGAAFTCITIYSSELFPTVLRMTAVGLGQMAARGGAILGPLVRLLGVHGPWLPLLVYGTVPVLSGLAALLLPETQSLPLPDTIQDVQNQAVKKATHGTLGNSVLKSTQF

Turning to `Cc1cccc(C)c1COc1cccc(-c2nnn[nH]2)c1` [Compound EB, 5-(3-(2,6-Dimethylbenzyloxy)phenyl)-1H-tetrazole], the “Detection in rat plasma (in words)” value in data set [1] (LC-MS) is recorded as “readily detected”. Besides, in data set [1] (Sprague-Dawley, rat, male rats, plasma), the Cmax came to 108 µg/mL. Also, the AUC(0-t) in data set [1] (Sprague-Dawley, rat, male rats, plasma, read-out: AUC 0-24) came out at 566 µg·h/mL. Further, the half-life in data set [1] (Sprague-Dawley, rat, male rats, plasma, read-out: T ½) turned out to be 3.99 h. Also, the “Compound EB concentration in plasma, individual rats” value in data set [1] (1 HR) is 386 µM and 103 µM; in data set [1] (2 HR), 75 µM and 206 µM; in data set [1] (4 HR) it was 24 µM and 112 µM; in data set [1] (6 HR) it was 26 µM and 92 µM; in data set [1] (8 HR), 72 µM and 202 µM; in data set [1] (24 HR) it was 0 µM and 17 µM. In addition, the “Compound EB concentration in plasma, individual rats” value in data set [1] (15 min) is 184 µM and 159 µM; in data set [1] (30 min), 37 µM and 125 µM. Besides, in data set [1] (male, Sprague-Dawley, rat plasma, time 0, read-out: Compound EB concentrations, averages), the concentration at 0 h is 0 nM and 0 ng/mL. In addition, in data set [1] (male, Sprague-Dawley, rat plasma, time 0.25, read-out: Compound EB concentrations, averages), the concentration at 0.25 h is 172 µM and 48000 ng/mL. For the same compound, the concentration at 0.5 h in data set [1] (male, Sprague-Dawley, rat plasma, time 0.5, read-out: Compound EB concentrations, averages) is 81 µM and 22700 ng/mL. Further, the concentration at 1 h in data set [1] (male, Sprague-Dawley, rat plasma, time 1, read-out: Compound EB concentrations, averages) was 244 µM and 68500 ng/mL. Besides, in data set [1] (male, Sprague-Dawley, rat plasma, time 2, read-out: Compound EB concentrations, averages), the concentration at 2 h is 140 µM and 39300 ng/mL. The concentration at 4 h in data set [1] (male, Sprague-Dawley, rat plasma, time 4, read-out: Compound EB concentrations, averages) was 68 µM and 19000 ng/mL. For the same compound, in data set [1] (male, Sprague-Dawley, rat plasma, time 6, read-out: Compound EB concentrations, averages), the concentration at 6 h was 59 µM and 16500 ng/mL. Further, the concentration at 8 h in data set [1] (male, Sprague-Dawley, rat plasma, time 8, read-out: Compound EB concentrations, averages) was 137 µM and 38400 ng/mL. The concentration at 24 h in data set [1] (male, Sprague-Dawley, rat plasma, time 24, read-out: Compound EB concentrations, averages) is 8.5 µM and 2380 ng/mL. Besides, in data set [2] (10 μM, hURAT1-HEK cells), 10 µM produced 90% inhibition. Moreover, in data set [2] (14C urate uptake in hURAT1-HEK cells), half-maximal inhibition (IC50) was put at 930 nM.
